Source: patent US7449290B2, “Method for selecting genetically transformed cells” (Expressive Research B.V., priority 2001, dated 2008)

Tests used:
[1] = system: Arabidopsis thaliana Col. O and La-er seedlings; assay: Sensitivity to trehalose of Arabidopsis thaliana seedlings (Col.O and La-er) on agar medium; type: in vivo; conditions: 100 mM trehalose in 0.8% agar, half-strength MS medium, pH 5.7; compared with 100 mM mannitol control
Procedure: Seeds were sterilized using the gas-phase protocol of Clough and Bent (1998) (Clough S. J., Bent A. F., Plant J. 16(6): 735-743, 199.8) in Eppendorf tubes. The sterilized sees were then resuspended in sterile water and arranged on 0.8% w/v agar medium containing half-strength Murashigue and Skoog medium (MS medium; Murashigue T, Skoog F, Physiol. Plant. 15: 473-497, 1977), vitamins and MES buffer (pH 5.7), supplemented with mannitol or trehalose in a final concentration of 100 mM. […] The upper row of plants are the Arabidopsis thaliana Landsberg erecta (La-er), and the lower row of plants are the Arabidopsis thaliana Colombia (Col.O).

[2] = system: non-transformed Arabidopsis thaliana Col.O seedlings; assay: Selection of transgenic Arabidopsis seedlings on trehalose medium; type: in vivo; conditions: 100 mM trehalose, 1/2 MS agar, after 12 days at 22° C.
Procedure: Arabidopsis thaliana Col.O plants were transformed with Aarobacterium with the binary plasmid as described in Example 2C, via the “floral dip” protocol (Clough and Bent, supra). The obtained dry seeds were sterilized and sown on 0.8% w/v solid agar medium having therein half-strength MS-salts (½ MS-salts), vitamins and MES buffer pH 5.7, supplemented with trehalose in a final concentration of 100 mM. The dishes were incubated for 3 days at 4° C. (stratification), whereafter a drop of ethanol was applied to the inside of the cover and dishes were transferred to 22° C. […] The transformed resistant seedlings are green, have long roots and primary leaves. […] In moist conditions the cotyledons become pale.

## OC[C@H]1O[C@H](O[C@H]2O[C@H](CO)[C@@H](O)[C@H](O)[C@H]2O)[C@H](O)[C@@H](O)[C@@H]1O [trehalose, Trehalose]
[1]
  development of plants from seeds (root system): lesser development
[2]
  phenotype of non-transformed, sensitive seedlings: accumulate anthocyanins, develop no primary leaves
  root length of non-transformed, sensitive seedlings: ≤ 3 mm
